In US10041104B2, “Microfluidic device” (Astrego Diagnostics AB, priority 2014, dated 2018):
In brackets after ≈: the same amount, converted by molar mass.

Legend:
[1] = test system: chloramphenicol-resistant E. coli strain; experiment: minimum inhibitory concentration (MIC); format: cell-based; conditions: Escherichia coli
[2] = test system: chloramphenicol-susceptible E. coli strain; experiment: minimum inhibitory concentration (MIC); format: cell-based; conditions: Escherichia coli
[3] = test system: chloramphenicol-susceptible and chloramphenicol-resistant E. coli strains; experiment: AST test in microfluidic device, phase contrast images (FIG. 15); format: cell-based, Escherichia coli; conditions: both strains exposed to 6 μg/ml chloramphenicol; images taken 15 min apart
Description: The microfluidic device of the embodiments can be used for various applications. An example of such application is antibiotic susceptibility testing (AST). For example, the microfluidic device 1 shown in FIG. 10 can be used for this purpose. In such a case, the sample strain can be loaded from, for instance, the common second fluid port 33A using the first fluid ports 31A′, 31B′, 31C′ as output ports for excess cells and culture medium and the common third fluid port 51 as output port for culture medium and for sucking cells into the cell channels. In an example, during loading culture medium is flown from the common second fluid port 33C to the common second fluid port 33B to prevent contaminating the common second fluid port 33C. After cell loading culture medium preferably flows from the common second fluid port 33C using the first fluid ports 31A′, 31B′, 31C′ and the common third fluid port 51 as output ports. At this stage growth of the cells in the cell channels can be monitored for some time, 0 min to days, while imaging the cells in the different cell channels. […] Susceptibility is monitored by the phenotypic response to antibiotic in the different cell channels. […] Some phenotypic changes are best studied by addition of test agents, such as 4′,6-diamidino-2-phenylindole (DAPI) and SYTOX® fluorescent stains, that can be monitored in a florescence channel. […]

[4] = test system: ciprofloxacin resistant E. coli strain DA20859; experiment: minimum inhibitory concentration (MIC); format: cell-based; conditions: Escherichia coli
[5] = test system: ciprofloxacin resistant E. coli strain DA20859; experiment: AST in microfluidic device, average growth rate response by phase contrast time lapse imaging (FIG. 18); format: cell-based, Escherichia coli
Description: The microfluidic device of the embodiments can be used for various applications. An example of such application is antibiotic susceptibility testing (AST). For example, the microfluidic device 1 shown in FIG. 10 can be used for this purpose. In such a case, the sample strain can be loaded from, for instance, the common second fluid port 33A using the first fluid ports 31A′, 31B′, 31C′ as output ports for excess cells and culture medium and the common third fluid port 51 as output port for culture medium and for sucking cells into the cell channels. In an example, during loading culture medium is flown from the common second fluid port 33C to the common second fluid port 33B to prevent contaminating the common second fluid port 33C. After cell loading culture medium preferably flows from the common second fluid port 33C using the first fluid ports 31A′, 31B′, 31C′ and the common third fluid port 51 as output ports. At this stage growth of the cells in the cell channels can be monitored for some time, 0 min to days, while imaging the cells in the different cell channels. The AST test starts by flowing different antibiotics or a same antibiotic but at different concentrations into the different sets 2A, 2B, 2C of cell channels using the first fluid ports 31A, 31B, 31C as input ports, while using the common second fluid ports 33A, 33B, 33C and the common third fluid port 51 as output ports. Susceptibility is monitored by the phenotypic response to antibiotic in the different cell channels. For example, it is possible to determine the average growth rate and the cell to cell distribution of growth rates just by monitoring the length extension in phase contrast using automatics images analysis routines. These measurements can be averaged over cells in many cell channels such that it is possible to determine minute phenotypic changes within a few minutes. Phenotypic changes can also be in morphological changes, such as the compaction of DNA or changes in membrane structure or in integrity. Some phenotypic changes are best studied by addition of test agents, such as 4′,6-diamidino-2-phenylindole (DAPI) and SYTOX® fluorescent stains, that can be monitored in a florescence channel.
The E. coli strain was exposed to (1) no drug marked with “x”, (2) erythromycin at 120 μg/ml marked with diamonds or (3) ciprofloxacin 10 μg/ml marked with circles. The time point 0 min corresponds to the start of the treatment. The curve corresponding to treatment with the drug (erythromycin) for which the strain is susceptible can be distinguished from the no treatment curve in <10 min. The curve corresponding to treatment with the drug for which the strain is susceptible can be distinguished from the curve corresponding to the drug (ciprofloxacin) for which the strain is resistant in <15 min.

[6] = test system: erythromycin-resistant and erythromycin-susceptible E. coli strains; experiment: AST in microfluidic device, average growth rate response (FIG. 17); format: cell-based, Escherichia coli; conditions: 120 μg/ml erythromycin at time 0 min
Description: The microfluidic device of the embodiments can be used for various applications. An example of such application is antibiotic susceptibility testing (AST). For example, the microfluidic device 1 shown in FIG. 10 can be used for this purpose. In such a case, the sample strain can be loaded from, for instance, the common second fluid port 33A using the first fluid ports 31A′, 31B′, 31C′ as output ports for excess cells and culture medium and the common third fluid port 51 as output port for culture medium and for sucking cells into the cell channels. In an example, during loading culture medium is flown from the common second fluid port 33C to the common second fluid port 33B to prevent contaminating the common second fluid port 33C. After cell loading culture medium preferably flows from the common second fluid port 33C using the first fluid ports 31A′, 31B′, 31C′ and the common third fluid port 51 as output ports. At this stage growth of the cells in the cell channels can be monitored for some time, 0 min to days, while imaging the cells in the different cell channels. […] Susceptibility is monitored by the phenotypic response to antibiotic in the different cell channels. […] Some phenotypic changes are best studied by addition of test agents, such as 4′,6-diamidino-2-phenylindole (DAPI) and SYTOX® fluorescent stains, that can be monitored in a florescence channel.

[7] = test system: erythromycin-resistant E. coli strain; experiment: minimum inhibitory concentration (MIC); format: cell-based; conditions: Escherichia coli
[8] = test system: erythromycin-susceptible (non-resistant) E. coli strains; experiment: minimum inhibitory concentration (MIC); format: cell-based; conditions: Escherichia coli; two non-resistant E. coli strains (circles and diamonds in FIG. 17)

MIC [1]	MIC [2]	Structure (SMILES)	growth of susceptible strain compared with resistant strain [3]	MIC [4]	susceptibility of the strain to the drug [5]	time in which resistant strain can be distinguished from susceptible strains (average growth rate) [6]	MIC [7]	time in which treatment curve can be distinguished from no treatment curve (average growth rate) ([5]; erythromycin 120 μg/ml)	time in which curve of drug for which strain is susceptible can be distinguished from curve of drug for which strain is resistant ([5]; erythromycin 120 μg/ml versus ciprofloxacin 10 μg/ml)	MIC [8]
> 12 µg/mL	~4 µg/mL (≈ 12.4 µM)	O=C(N[C@H](CO)[C@H](O)c1ccc([N+](=O)[O-])cc1)C(Cl)Cl [chloramphenicol]	grown much less than the chloramphenicol-resistant strain							
		O=C(O)c1cn(C2CC2)c2cc(N3CCNCC3)c(F)cc2c1=O [ciprofloxacin]		~30 µg/mL (≈ 90.5 µM)	resistant					
		CC[C@H]1OC(=O)[C@H](C)[C@@H](O[C@H]2C[C@@](C)(OC)[C@@H](O)[C@H](C)O2)[C@H](C)[C@@H](O[C@@H]2O[C@H](C)C[C@H](N(C)C)[C@H]2O)[C@](C)(O)C[C@@H](C)C(=O)[C@H](C)[C@@H](O)[C@]1(C)O [erythromycin]			susceptible	less than 20 min	256 µg/mL (≈ 349 µM)	< 10 min	< 15 min	~12 µg/mL (≈ 16.4 µM)
